Patent US11578315B2, “Truncated guinea pig L-asparaginase variants and methods of use” (THE BOARD OF TRUSTEES OF THE UNIVERSITY OF ILLINOIS, priority 2017, dated 2023)
Values joined by “and” are separate entries in the source; they are usually repeats but may differ in a detail not shown here. Equal values may be shown once.

Experiments:
[1] = test system: gN-hC, chimera of guinea pig gpASNase1 N-terminal domain (residue 1-359) and human hASNase1 C-terminal domain (residue 362-573), SEQ ID NO:37; assay: L-asparaginase kinetics, NADH-dependent enzyme-coupled assay; assay type: biochemical; details: pH 7.5, 37° C.
Excerpt: (§1) To build the clone hN-gC, the sequence corresponding to the N-terminal domain of hASNase1 (hN, residue 1-361) was amplified using the primers NdeI-hA_F1 and gpA360-367_R and the sequence corresponding to the C-terminal domain of gpASNase1 (gC, residue 360-565) was amplified using the primers hA354-361_F and gpA-BamHI_R565. To build the clone gN-hC the sequence corresponding to the N-terminal domain of gpASNase1 (gN, residue 1-359) was amplified using the primers NdeI-gpA_F1 and hA362-369_R and the sequence corresponding to the C-terminal domain of hASNase1 (hC, residue 362-573) was amplified using the primers gpA352-359_F and hA_BamHI_R573. The chimera was then constructed by PCR fusion of fragment hN and gC or gN and hC using the appropriate primers and then subsequently cloned into the pBAD and pET vectors.
(§2) The catalytic activity of the clones was determined using a spectroscopic NADH-dependent enzyme-coupled assay (Fernandez, et al. (2013) Int. J. Clin. Exp. Med. 6:478-487; Hejazi, et al. (2002) Biochem. J. 364:129-136), which measures the production of L-aspartic acid (Asp) through the 1:1 oxidation of reduced NADH. The conversion of NADH to NAD was measured spectrophotometrically as a decrease in absorbance at 340 nm at 37° C. All measurements were taken in triplicate in a buffer containing 100 mM Tris pH 7.5, 0.4 mM α-ketoglutarate and 0.4 mM NADH with 50 nM (hASNase1, hN-gC); 10 nM (gpASNase1, gN-hC, 63-hC, 64-hC, 65-hC, SA-hC) or 3 nM (ansB) enzyme. Glutamic-oxalacetic transaminase (Sigma) and malic dehydrogenase (Sigma) were helper enzymes for the coupled enzymatic reactions; 5 and 1 unit were used, respectively. Data were fit to the Michaelis-Menten equation using SigmaPlot (Systat Software Inc). Due to the cooperative nature of hASNase1, this enzyme was analyzed using the Hill equation.
(§3) Accordingly, two chimeras were generated; one, which was referred to as hN-gC and included the human N-terminal domain fused to the guinea pig C-terminal domain, and the second, which was referred to as gN-hC and included the guinea pig N-terminal domain fused to the human C-terminal domain (FIG. 1, Table 3). In vitro kinetic characterization of these chimeras validated the prediction, with hN-gC displaying kinetic properties similar to hASNase1 and gN-hC displaying kinetic properties similar to gpASNase1 (Table 4).

[2] = test system: hN-gC, chimera of human hASNase1 N-terminal domain (residue 1-361) and guinea pig gpASNase1 C-terminal domain (residue 360-565), SEQ ID NO:38; assay: as above; assay type: biochemical; details: pH 7.5, 37° C.
Excerpt: as §1, §2, §3

[3] = test system: E. coli L-asparaginase iiiA; details: in words; cited from earlier work
[4] = test system: guinea pig L-asparaginase (gpASNase1, GpA), wild type, SEQ ID NO:1; details: Schalk, et al. (2014), cited from earlier work
[5] = test system: human L-asparaginase type I (hASNase1), SEQ ID NO:2; details: in words; Karamitros & Konrad (2014); Schalk, et al. (2014); cited from earlier work
[6] = test system: 63N-hC, shuffled hASNase1/gpASNase1 clone #63 with human C-terminal domain, SEQ ID NO:39; assay: L-asparaginase kinetics, NADH-dependent enzyme-coupled assay; assay type: biochemical, human / guinea pig; details: pH 7.5, 37° C.
Method: as §2
(§4) Since the goal was to identify a clone with gpASNase1 kinetic properties but with the highest sequence homology to hASNase1, the four clones, #63, #64, #65 and # SA, were engineered by replacing their shuffled C-terminal domain with the exact sequence of the human C-terminal domain (FIG. 1).
(§5) For determining the precise kinetic properties of 63N-hC, 64N-hC, 65N-hC and SAN-hC, the genes encoding these enzymes were sub-cloned into a pET14b expression vector and expressed in C41 E. coli cells. The purified clones were tested for their L-asparaginase activity (Table 4). E. coli L-asparaginase ansB was also included in order to compare the clones to an L-asparaginase approved for cancer therapy. […] Importantly, the kobs@50 μM values for the humanized clones were also in this range, being 17 sec^−1, 10 sec^−1, 17 sec^−1 and 6 sec^−1 for clones 63N-hC, 64N-hC, 65N-hC and SAN-hC, respectively.

[7] = test system: 65N-hC, shuffled hASNase1/gpASNase1 clone #65 with human C-terminal domain, SEQ ID NO:41; assay: as above; assay type: biochemical, human / guinea pig; details: pH 7.5, 37° C.
Method: as §2, §4, §5

[8] = test system: SAN-hC, shuffled hASNase1/gpASNase1 clone #SA with human C-terminal domain, SEQ ID NO:42; assay: as above; assay type: biochemical, human / guinea pig; details: pH 7.5, 37° C.
Method: as §2, §4, §5

[9] = test system: 64N-hC, shuffled hASNase1/gpASNase1 clone #64 with human C-terminal domain, SEQ ID NO:40; assay: as above; assay type: biochemical, human / guinea pig; details: pH 7.5, 37° C.
Method: as §2, §4, §5

[10] = target: human L-asparaginase 1 (hASNase1), wild type, SEQ ID NO:2 (Homo sapiens, UniProt Q86U10); assay: as above; assay type: biochemical
Sequence of human L-asparaginase 1 (hASNase1), wild type, SEQ ID NO:2 (Q86U10 whole entry): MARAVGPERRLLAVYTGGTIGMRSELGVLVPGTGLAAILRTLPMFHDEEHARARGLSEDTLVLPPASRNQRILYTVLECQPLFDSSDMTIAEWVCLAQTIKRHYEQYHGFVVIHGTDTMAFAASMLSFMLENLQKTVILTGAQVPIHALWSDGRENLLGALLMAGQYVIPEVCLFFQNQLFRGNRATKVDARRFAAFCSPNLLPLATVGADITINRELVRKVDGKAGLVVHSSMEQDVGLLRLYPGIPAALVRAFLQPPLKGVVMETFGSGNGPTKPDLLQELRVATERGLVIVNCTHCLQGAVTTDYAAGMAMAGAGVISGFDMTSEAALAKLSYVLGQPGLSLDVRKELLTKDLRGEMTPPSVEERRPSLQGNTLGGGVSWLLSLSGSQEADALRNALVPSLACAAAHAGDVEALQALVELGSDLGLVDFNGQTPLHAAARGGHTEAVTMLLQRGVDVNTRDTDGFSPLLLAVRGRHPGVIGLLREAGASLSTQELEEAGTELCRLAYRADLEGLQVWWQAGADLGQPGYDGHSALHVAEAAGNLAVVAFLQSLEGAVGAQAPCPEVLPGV
Method: as §2

[11] = target: T1, E. coli L-asparaginase ansB (type II) (Escherichia coli, UniProt P00805); assay: as above; assay type: biochemical; details: 50 μM Asn, pH 7.5, 37° C.
T1 construct: made in house
Method: as §2

[12] = target: T2, guinea pig L-asparaginase (gpASNase1, GpA), wild type, full length (GpA-FL), SEQ ID NO:1 (Cavia porcellus, UniProt H0W0T5); assay: as above; assay type: biochemical
T2 construct: Full length GpA (GpA-FL); made in house
T2 sequence (H0W0T5 1-565): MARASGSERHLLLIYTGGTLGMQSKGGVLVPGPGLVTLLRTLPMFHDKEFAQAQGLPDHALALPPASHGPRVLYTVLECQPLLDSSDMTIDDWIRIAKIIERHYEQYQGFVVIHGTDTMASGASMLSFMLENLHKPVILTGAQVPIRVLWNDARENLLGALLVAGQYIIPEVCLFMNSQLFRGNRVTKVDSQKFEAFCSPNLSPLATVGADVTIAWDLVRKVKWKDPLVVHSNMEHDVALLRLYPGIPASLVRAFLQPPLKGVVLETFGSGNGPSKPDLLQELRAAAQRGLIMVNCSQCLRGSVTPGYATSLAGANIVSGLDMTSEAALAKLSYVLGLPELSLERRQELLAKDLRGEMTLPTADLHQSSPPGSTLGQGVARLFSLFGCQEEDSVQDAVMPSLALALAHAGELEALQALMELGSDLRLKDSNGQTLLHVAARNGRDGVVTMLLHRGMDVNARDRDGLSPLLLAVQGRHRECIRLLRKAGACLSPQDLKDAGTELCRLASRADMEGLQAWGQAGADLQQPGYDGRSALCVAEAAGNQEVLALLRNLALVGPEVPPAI
Method: as §2

[13] = target: T3, guinea pig L-asparaginase (GpA) variant GpA369-C198A + K225C + E340C + E49C, SEQ ID NO:56 (Cavia porcellus, UniProt H0W0T5, C198A/E340C/E49C/K225C); assay: L-asparaginase activity, kobs at 2 mM Asn; assay type: biochemical
T3 construct: made in house
T3 sequence (H0W0T5 1-369 E49C/C198A/K225C/E340C): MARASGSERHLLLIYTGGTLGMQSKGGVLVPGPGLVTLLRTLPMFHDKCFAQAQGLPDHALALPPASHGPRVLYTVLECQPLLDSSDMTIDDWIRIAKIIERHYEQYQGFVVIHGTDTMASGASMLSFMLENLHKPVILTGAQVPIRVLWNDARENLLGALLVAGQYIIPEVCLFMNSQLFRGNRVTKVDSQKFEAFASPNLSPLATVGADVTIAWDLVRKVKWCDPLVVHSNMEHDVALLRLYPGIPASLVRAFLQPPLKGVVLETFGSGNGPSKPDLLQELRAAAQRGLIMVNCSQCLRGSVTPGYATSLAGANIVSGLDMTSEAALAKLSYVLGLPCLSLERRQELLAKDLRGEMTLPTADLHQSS
Method: as §2

[14] = target: T4, guinea pig L-asparaginase (GpA) variant GpA369-C198A + K225C + E340C, SEQ ID NO:55 (Cavia porcellus, UniProt H0W0T5, C198A/E340C/K225C); assay: L-asparaginase activity, kobs at 2 mM Asn; assay type: biochemical
T4 construct: made in house
T4 sequence (H0W0T5 1-369 C198A/K225C/E340C): as the sequence (H0W0T5 1-369 E49C/C198A/K225C/E340C) above, with C49E counted along it
Method: as §2

[15] = target: T5, guinea pig L-asparaginase (GpA) variant GpA369-C198A, SEQ ID NO:51 (Cavia porcellus, UniProt H0W0T5, C198A); assay: L-asparaginase activity, kobs at 2 mM Asn; assay type: biochemical
T5 construct: made in house
T5 sequence (H0W0T5 1-369 C198A): as the sequence (H0W0T5 1-369 E49C/C198A/K225C/E340C) above, with C49E, C225K, C340E counted along it
Method: as §2

[16] = target: T6, guinea pig L-asparaginase (GpA) variant GpA369, residues 1-369, SEQ ID NO:5 (Cavia porcellus, UniProt H0W0T5); assay: L-asparaginase activity, kobs at 2 mM Asn; assay type: biochemical
T6 construct: GpA369; 1-369; SUMO (cleaved yes); made in house
Method: as §2

[17] = target: T7, guinea pig L-asparaginase (GpA) variant GpA369-C198A + K225C, SEQ ID NO:54 (Cavia porcellus, UniProt H0W0T5, C198A/K225C); assay: L-asparaginase activity, kobs at 2 mM Asn; assay type: biochemical
T7 construct: GpA369-C198A + K225C; 99.4%; 71.7%; 54; made in house
T7 sequence (H0W0T5 1-369 C198A/K225C): as the sequence (H0W0T5 1-369 E49C/C198A/K225C/E340C) above, with C49E, C340E counted along it
Method: as §2

[18] = target: T8, guinea pig L-asparaginase (GpA) variant 40K-PEGylated-GpA369-C198A, SEQ ID NO:51 (Cavia porcellus, UniProt H0W0T5, C198A); assay: L-asparaginase activity, kobs at 2 mM Asn; assay type: biochemical; details: linear PEG
T8 construct: made in house
T8 sequence (H0W0T5 1-369 C198A): as the sequence (H0W0T5 1-369 E49C/C198A/K225C/E340C) above, with C49E, C225K, C340E counted along it
Method: as §2
(§6) Each of the variants listed in Table 9 were recombinantly expressed, purified and PEGylated with one or more of mPEG-10K, mPEG-20K and mPEG-40K (Table 10). As determined by SDS-PAGE analysis, the size of the PEGylated enzymes increased with an increase in the number of active cysteines. For example, using maleimide-PEG10K, GpA369(hum)-C198A migrated at a higher molecular weight after PEGylation (due to the extra 10K Da supplied by the PEG), and GpA369(hum)-C198A+R52C migrated at an even higher apparent molecular weight since this variant can react with two PEG molecules (for a total of an extra 20K Da supplied by two 10K molecules linked to the enzyme). Of note, the GpA369-C198A-K225C-E340C-E49C-Q257C mutant was prepared, expressed, purified and PEGylated with mPEG-10K.

[19] = target: T9, guinea pig L-asparaginase (GpA) variant 20K-PEGylated-GpA369-C198A, SEQ ID NO:51 (Cavia porcellus, UniProt H0W0T5, C198A); assay: L-asparaginase activity, kobs at 2 mM Asn; assay type: biochemical; details: linear PEG
T9 construct: made in house
T9 sequence (H0W0T5 1-369 C198A): as the sequence (H0W0T5 1-369 E49C/C198A/K225C/E340C) above, with C49E, C225K, C340E counted along it
Method: as §2, §6

[20] = target: T10, guinea pig L-asparaginase (GpA) variant 10K-PEGylated-GpA369-C198A, SEQ ID NO:51 (Cavia porcellus, UniProt H0W0T5, C198A); assay: L-asparaginase activity, kobs at 2 mM Asn; assay type: biochemical; details: linear PEG
T10 construct: made in house
T10 sequence (H0W0T5 1-369 C198A): as the sequence (H0W0T5 1-369 E49C/C198A/K225C/E340C) above, with C49E, C225K, C340E counted along it
Method: as §2, §6

[21] = substrate: NC(=O)C[C@H](N)C(=O)O; assay: L-asparaginase kinetics, NADH-dependent enzyme-coupled assay; assay type: biochemical, E. coli; details: other: pH 7.5, 37° C., 3 nM enzyme
Method: as §2

## NC(=O)C[C@H](N)C(=O)O [Asn, L-asparagine]
[1]; 50 μM Asn
  kobs @50 μM: 14 ± 1 s⁻¹
[1]
  kcat/Km: 0.7 sec^−1μM^−1
[1]; 10 nM enzyme
  Km: 35 µM
  kcat: 24 ± 1 s⁻¹
[2]
  kcat/Km: 0.004 sec^−1μM^−1
[2]; 50 nM enzyme
  Km: 3.8 ± 0.12 mM
  kcat: 14 ± 0.5 s⁻¹
[3]
  Km value for Asn: very high
[4]
  reaction rate (kcat): approximately 39 s^−1
[4]; in words
  Km for Asn: in the micromolar range
[4]; read-out: Km for Asn
  Km: 58 µM
[5]
  Km for Asn: in the millimolar range
[6]; 50 μM Asn
  kobs @50 μM: 17 s⁻¹ and 17 ± 0.5 s⁻¹
[6]
  kcat/Km: 0.7 sec^−1μM^−1
[6]; 10 nM enzyme
  Km: 47 µM
  kcat: 32 ± 0.6 s⁻¹
[7]; 50 μM Asn
  kobs @50 μM: 17 s⁻¹ and 17 ± 1 s⁻¹
[7]
  kcat/Km: 0.5 sec^−1μM^−1
[7]; 10 nM enzyme
  Km: 74 µM
  kcat: 40 ± 1 s⁻¹
[8]; 50 μM Asn
  kobs @50 μM: 6 s⁻¹ and 6 ± 1 s⁻¹
[8]
  kcat/Km: 0.2 sec^−1μM^−1
[8]; 10 nM enzyme
  Km: 165 µM
  kcat: 32 ± 2 s⁻¹
[9]; 50 μM Asn
  kobs @50 μM: 10 s⁻¹ and 10 ± 1 s⁻¹
[9]
  kcat/Km: 0.3 sec^−1μM^−1
[9]; 10 nM enzyme
  Km: 202 ± 17 µM
  kcat: 60 ± 2 s⁻¹
[10]; Hill-equation (n = 2.1), pH 7.5, 37° C., 50 nM enzyme
  kcat: 17 ± 0.8 s⁻¹
[10]; Hill-equation fit
  Hill coefficient n: *Kinetic parameters using the Hill-equation (n = 2.1)
[11]
  kobs @50 μM: 41 ± 0.3 s⁻¹
[12]; 50 μM Asn, pH 7.5, 37° C.
  kobs @50 μM: 20 s⁻¹ and 20 ± 1 s⁻¹
[12]; 2 mM Asn, full length GpA
  kobs at 2 mM ASN: 41 s⁻¹
[12]; pH 7.5, 37° C., 10 nM enzyme
  Km: 50 ± 7 µM
  kcat: 41 ± 2 s⁻¹
[13]
  kobs at 2 mM ASN: 41.6 s⁻¹
[14]
  kobs at 2 mM ASN: 42.4 s⁻¹
[15]
  kobs at 2 mM ASN: 43.3 s⁻¹
[16]
  kobs at 2 mM ASN: 44 s⁻¹
[17]
  kobs at 2 mM ASN: 41.4 s⁻¹
[18]
  kobs at 2 mM ASN: 76.5 s⁻¹
[19]
  kobs at 2 mM ASN: 83.7 s⁻¹
[20]
  kobs at 2 mM ASN: 83.3 s⁻¹

B1: E. coli L-asparaginase ansB (type II) (Escherichia coli K-12) (protein)
chain: LPNITILATGGTIAGGGDSATKSNYTVGKVGVENLVNAVPQLKDIANVKGEQVVNIGSQDMNDNVWLTLAKKINTDCDKTDGFVITHGTDTMEETAYFLDLTVKCDKPVVMVGAMRPSTSMSADGPFNLYNAVVTAADKASANRGVLVVMNDTVLDGRDVTKTNTTDVATFKSVNYGPLGYIHNGKIDYQRTPARKHTSDTPFDVSKLNELPKVGIVYNYANASDLPAKALVDAGYDGIVSAGVGNGNLYKSVFDTLATAAKTGTAVVRSSRVPTGATTQDAEVDDAKYGFVASGTLNPQKARVLLQLALTQTKDPQQIQQIFNQY
notes: made in house
[21]
  Km: 11 ± 1 µM
  kcat: 48 ± 1 s⁻¹
  kcat/Km: 4.4e+06 M⁻¹ s⁻¹
